The experiment concerns the target T1, human liver glycogen phosphorylase (Homo sapiens, UniProt P06737).
T1 construct: made in house; host or cells: Sf9 insect cells (suspension of disrupted cells, diluted in BES buffer, not purified)
T1 sequence (P06737 1-847): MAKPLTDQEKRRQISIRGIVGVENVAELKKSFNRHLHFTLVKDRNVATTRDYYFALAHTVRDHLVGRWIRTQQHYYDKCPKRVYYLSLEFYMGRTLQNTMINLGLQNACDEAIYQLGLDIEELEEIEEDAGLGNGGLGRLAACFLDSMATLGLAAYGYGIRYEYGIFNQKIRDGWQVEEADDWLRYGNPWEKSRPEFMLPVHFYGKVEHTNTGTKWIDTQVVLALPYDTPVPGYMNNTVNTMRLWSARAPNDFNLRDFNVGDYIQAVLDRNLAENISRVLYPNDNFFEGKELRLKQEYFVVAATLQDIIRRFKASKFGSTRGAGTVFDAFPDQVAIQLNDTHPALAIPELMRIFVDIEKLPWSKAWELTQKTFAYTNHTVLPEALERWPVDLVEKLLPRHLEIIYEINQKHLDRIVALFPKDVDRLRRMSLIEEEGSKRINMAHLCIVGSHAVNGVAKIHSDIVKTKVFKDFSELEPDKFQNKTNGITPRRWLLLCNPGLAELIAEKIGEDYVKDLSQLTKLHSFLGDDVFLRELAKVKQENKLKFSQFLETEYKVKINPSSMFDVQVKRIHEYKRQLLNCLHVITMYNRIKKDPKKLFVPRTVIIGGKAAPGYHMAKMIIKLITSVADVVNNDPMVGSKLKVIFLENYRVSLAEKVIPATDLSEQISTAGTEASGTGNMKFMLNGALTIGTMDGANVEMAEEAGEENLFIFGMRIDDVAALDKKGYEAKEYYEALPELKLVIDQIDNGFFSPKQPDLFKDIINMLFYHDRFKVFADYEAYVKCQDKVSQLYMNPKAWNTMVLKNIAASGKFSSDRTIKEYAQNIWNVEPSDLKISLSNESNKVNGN
The experiment can be described thus: Liver glycogen phosphorylase activity, forward reaction system (NADPH detection at 340 nm). It is filed as biochemical. The note with it: enzyme inhibitory activity against recombinant human liver glycogen phosphorylase (Sf9 cell lysate), room temperature, 75 minutes. The protocol: The glycogen phosphorylase activity was determined by a method using a forward reaction system.
The following method was used to determine the glycogen phosphorylase activity using a forward reaction system. Glucose-1-phosphate generated from glycogen by glycogen phosphorylase was converted to glucono-δ-lactone-6-phosphate by transphosphorylation and dehydrogenation reactions using phosphoglucomutase and glucose-6-phosphate dehydrogenase (G6PDH). At this time, NADPH generated from NADP in the dehydrogenation reaction by G6PDH was detected.
An enzyme solution of human liver glycogen phosphorylase was obtained by diluting with 100 mmol/L BES buffer (pH 6.8, containing 2 mmol/L EDTA) a suspension disrupted Sf9 cells in which a recombinant human liver glycogen phosphorylase was forcibly expressed. Phosphate buffer (16 mmol/L KH2PO4, containing 24 mmol/L Na2HPO4) was used as a substrate solution. A mixture of 8 U/mL phosphoglucomutase and 60 U/mL G6PDH was prepared with BES buffer. A reaction buffer (1.4 mmol/L NADP, 30 mmol/L MgCl2, 8 μmol/L glucose-1,6-diphosphate, 8 mg/mL glycogen, 40 mmol/L BES, containing 0.8 mmol/L EDTA) and a glucose solution (75 mmol/L glucose and 100 mmol/L BES, containing 2 mmol/L EDTA) were prepared. A test substance was dissolved in 1% DMSO aqueous solution.
To a mixture of the glucose solution (20 μL), the substrate solution (20 μL), the reaction buffer (100 μL), and the test substance (20 μL), the recombinant human liver glycogen phosphorylase solution (20 μL), and a mixture (20 μL) of phosphoglucomutase and G6PDH were added to initiate an enzymatic reaction. To a control, 1% DMSO aqueous solution was added instead of the test substance. A solution to which the substrate was not added was used as a blank. After initiation of the reaction, absorbance at 340 nm was measured immediately. The reaction was performed at room temperature for 75 minutes, and then absorbance at 340 nm was measured again. The enzyme activity was obtained by deducting the change in absorbance of the blank for 75 minutes from the change in absorbance over 75 minutes. The inhibition rate (%) of the test substance was calculated by “(1−(enzyme activity of test substance)/(enzyme activity of control))×100”.
“IC50” represents an enzyme inhibitory activity against human liver glycogen phosphorylase.

As usually defined, the IC50 is the concentration that inhibits the measured activity by half.

As to `CCOC(=O)c1cc(CNC(=O)c2cc(NC(=O)c3cc(F)c(F)cc3Cl)[nH]n2)on1` [Example 1-23, 5-(2-chloro-4,5-difluoro-benzoylamino)-1H-pyrazole-3-carboxylic acid (3-ethoxycarbonylisoxazol-5-ylmethyl)-amide], the IC50 was less than 100 nM. For `CSCCc1oc(C)nc1CNC(=O)c1cc(NC(=O)c2cc(F)c(F)cc2Cl)[nH]n1` [Example 1-24, 5-(2-chloro-4,5-difluoro-benzoylamino)-1H-pyrazole-3-carboxylic acid [2-methyl-5-(2-methylsulfanyl-ethyl)-oxazol-4-ylmethyl]-amide] the value was less than 100 nM; for `Cc1nc(-c2ccc(F)cc2)c(CNC(=O)c2cc(NC(=O)c3cc(F)c(F)cc3Cl)[nH]n2)o1` [Example 1-25, 5-(2-chloro-4,5-difluoro-benzoylamino)-1H-pyrazole-3-carboxylic acid [4-(4-fluoro-phenyl)-2-methyl-oxazol-5-ylmethyl]-amide], less than 100 nM. As to `Cc1nc(-c2cccc(F)c2)c(CNC(=O)c2cc(NC(=O)c3cc(F)c(F)cc3Cl)[nH]n2)o1` [Example 1-26, 5-(2-chloro-4,5-difluoro-benzoylamino)-1H-pyrazole-3-carboxylic acid [4-(3-fluoro-phenyl)-2-methyl-oxazol-5-ylmethyl]-amide], the IC50 was less than 100 nM.

With `Cc1nc(-c2ccccc2F)c(CNC(=O)c2cc(NC(=O)c3cc(F)c(F)cc3Cl)[nH]n2)o1` [Example 1-27, 5-(2-chloro-4,5-difluoro-benzoylamino)-1H-pyrazole-3-carboxylic acid [4-(2-fluoro-phenyl)-2-methyl-oxazol-5-ylmethyl]-amide], the IC50 was less than 100 nM. As for `Cc1nc(-c2ccc(Cl)cc2)c(CNC(=O)c2cc(NC(=O)c3cc(F)c(F)cc3Cl)[nH]n2)o1` [Example 1-28, 5-(2-chloro-4,5-difluoro-benzoylamino)-1H-pyrazole-3-carboxylic acid [4-(4-chloro-phenyl)-2-methyl-oxazol-5-ylmethyl]-amide], the figure is less than 100 nM. For `Cc1ccc(-c2nc(C)oc2CNC(=O)c2cc(NC(=O)c3cc(F)c(F)cc3Cl)[nH]n2)cc1` [Example 1-29, 5-(2-chloro-4,5-difluoro-benzoylamino)-1H-pyrazole-3-carboxylic acid [4-(4-methyl-phenyl)-2-methyl-oxazol-5-ylmethyl]-amide] the value was less than 100 nM. For `Cc1cccc(-c2nc(C)oc2CNC(=O)c2cc(NC(=O)c3cc(F)c(F)cc3Cl)[nH]n2)c1` [Example 1-30, 5-(2-chloro-4,5-difluoro-benzoylamino)-1H-pyrazole-3-carboxylic acid [4-(3-methyl-phenyl)-2-methyl-oxazol-5-ylmethyl]-amide] the value was less than 100 nM; for `COc1cccc(-c2nc(C)oc2CNC(=O)c2cc(NC(=O)c3cc(F)c(F)cc3Cl)[nH]n2)c1` [Example 1-31, 5-(2-chloro-4,5-difluoro-benzoylamino)-1H-pyrazole-3-carboxylic acid [4-(3-methoxy-phenyl)-2-methyl-oxazol-5-ylmethyl]-amide], less than 100 nM; for `Cc1nc(-c2ccc(-c3ccccc3)cc2)c(CNC(=O)c2cc(NC(=O)c3cc(F)c(F)cc3Cl)[nH]n2)o1` [Example 1-32, 5-(2-chloro-4,5-difluoro-benzoylamino)-1H-pyrazole-3-carboxylic acid (4-biphenyl-4-yl-2-methyl-oxazol-5-ylmethyl)-amide], less than 100 nM.

For the compound `Cc1nc(CCc2ccccc2)c(CNC(=O)c2cc(NC(=O)c3cc(F)c(F)cc3Cl)[nH]n2)o1` [Example 1-33, 5-(2-chloro-4,5-difluoro-benzoylamino)-1H-pyrazole-3-carboxylic acid (2-methyl-4-phenethyl-oxazol-5-ylmethyl)-amide], the IC50 was less than 100 nM. As for `CCOC(=O)c1nc(C)oc1CNC(=O)c1cc(NC(=O)c2cc(F)c(F)cc2Cl)[nH]n1` [Example 1-34, 5-(2-chloro-4,5-difluoro-benzoylamino)-1H-pyrazole-3-carboxylic acid (4-ethoxycarbonyl-2-methyl-oxazol-5-ylmethyl)-amide], the figure is less than 100 nM. Consider `Cc1nc(CO)c(CNC(=O)c2cc(NC(=O)c3cc(F)c(F)cc3Cl)[nH]n2)o1` [Example 1-35, 5-(2-chloro-4,5-difluoro-benzoylamino)-1H-pyrazole-3-carboxylic acid (4-hydroxymethyl-2-methyl-oxazol-5-ylmethyl)-amide], for which the IC50 was less than 100 nM. As for `Cc1nc(Cc2ccccc2)c(CNC(=O)c2cc(NC(=O)c3cc(F)c(F)cc3Cl)[nH]n2)o1` [Example 1-36, 5-(2-chloro-4,5-difluoro-benzoylamino)-1H-pyrazole-3-carboxylic acid (4-benzyl-2-methyl-oxazol-5-ylmethyl)-amide p-toluenesulfonate], the figure is less than 100 nM. As for `Cc1nc(C2CC2)c(CNC(=O)c2cc(NC(=O)c3cc(F)c(F)cc3Cl)[nH]n2)o1` [Example 1-37, 5-(2-chloro-4,5-difluoro-benzoylamino)-1H-pyrazole-3-carboxylic acid (4-cyclopropyl-2-methyl-oxazol-5-ylmethyl)-amide], the figure is less than 100 nM; as for `Cc1nc(C2CCCCC2)c(CNC(=O)c2cc(NC(=O)c3cc(F)c(F)cc3Cl)[nH]n2)o1` [Example 1-38, 5-(2-chloro-4,5-difluoro-benzoylamino)-1H-pyrazole-3-carboxylic acid (4-cyclohexyl-2-methyl-oxazol-5-ylmethyl)-amide], less than 100 nM; as for `Cc1nc(C2CC2)oc1CNC(=O)c1cc(NC(=O)c2cc(F)c(F)cc2Cl)[nH]n1` [Example 1-39, 5-(2-chloro-4,5-difluoro-benzoylamino)-1H-pyrazole-3-carboxylic acid (2-cyclopropyl-4-methyl-oxazol-5-ylmethyl)-amide], less than 100 nM. As for `Cc1nc(C2CCCCC2)oc1CNC(=O)c1cc(NC(=O)c2cc(F)c(F)cc2Cl)[nH]n1` [Example 1-40, 5-(2-chloro-4,5-difluoro-benzoylamino)-1H-pyrazole-3-carboxylic acid (2-cyclohexyl-4-methyl-oxazol-5-ylmethyl)-amide], the figure is less than 100 nM; as for `Cc1nc(Cc2ccccc2)oc1CNC(=O)c1cc(NC(=O)c2cc(F)c(F)cc2Cl)[nH]n1` [Example 1-41, 5-(2-chloro-4,5-difluoro-benzoylamino)-1H-pyrazole-3-carboxylic acid (2-benzyl-4-methyl-oxazol-5-ylmethyl)-amide], less than 100 nM. In the case of `Cc1nc(CCc2ccccc2)oc1CNC(=O)c1cc(NC(=O)c2cc(F)c(F)cc2Cl)[nH]n1` [Example 1-42, 5-(2-chloro-4,5-difluoro-benzoylamino)-1H-pyrazole-3-carboxylic acid (4-methyl-2-phenethyl-oxazol-5-ylmethyl)-amide], the IC50 was less than 100 nM. For `Cc1nc(COC(c2ccccc2)(c2ccccc2)c2ccccc2)oc1CNC(=O)c1cc(NC(=O)c2cc(F)c(F)cc2Cl)[nH]n1` [Example 1-43, 5-(2-chloro-4,5-difluoro-benzoylamino)-1H-pyrazole-3-carboxylic acid (4-methyl-2-trityloxymethyl-oxazol-5-ylmethyl)-amide] the value was greater than 300 nM; for `Cc1nc(COc2ccccc2)oc1CNC(=O)c1cc(NC(=O)c2cc(F)c(F)cc2Cl)[nH]n1` [Example 1-44, 5-(2-chloro-4,5-difluoro-benzoylamino)-1H-pyrazole-3-carboxylic acid (4-methyl-2-phenoxymethyl-oxazol-5-ylmethyl)-amide], less than 100 nM.

Values taken from patent US20090036450A1, “PYRAZOLE COMPOUNDS AND USE THEREOF” (JAPAN TOBACCO, INC., priority 2006, published 2009).
